# From PubChem BioAssay AID179 (DTP/NCI, 2004)
# Values joined by “and” are separate entries in the source; they are usually repeats but may differ in a detail not shown here. Equal values may be shown once. Active and inactive are the calls of the source.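 How the source made its calls: active means compounds giving half or more protection of infected cells from virus-caused growth loss, again on retest; inactive means the rest.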
# Tested on: CEM cells HIV-1 protection, formazan growth assay
# Assay: NCI AIDS Antiviral Assay
# Details: for IC50: measured here: growth of uninfected CEM cells
# Outline: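 Soluble formazan readout of cell growth; CEM cells ± HIV-1; 5 drug concs. ≥50% protection → retest; ≥50% again = moderately active; reproducible 100% = confirmed active.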
Compound,EC50 [µM],IC50,outcome
CC1(CN2CCCCC2)COC(c2ccccc2)(c2ccccc2)OC1,> 200,29.5 µM,–
CCCCCCCCOCC(O)COC(=O)CCCCCCC (configuration not stated),> 251,20.9 µM,–
O=c1[nH]nc(Nc2ccccc2)c2nnn(C3CCCCC3)c12,> 174,> 174 µM,–
C[C@H](Nc1nc(N)c(N=O)c(=O)n1C)C(=O)O,> 200,> 200 µM,–
CCO/C=C1\C(=O)N(C(C)=O)c2cc(OC)c(OC)cc21,> 200,26.9 µM,–
CN(C)Cc1cc(N=Nc2ccc(Cl)c(Cl)c2)ccc1O,> 200,18.6 µM,–
C=C1CC(Cn2ccc(=O)[nH]c2=O)(c2ccc(-c3ccccc3)cc2)OC1=O (configuration not stated),> 20,0.479 µM,–
N#Cc1ccc2oc3ccc(C#N)cc3c(=O)c2c1,–,–,inactive
CCCC1C(C#N)(C#N)C(C#N)=C(N)C1(C)C(C)=O (configuration not stated),> 200,> 200 µM,–
COc1ccc(/C=C2\CCCC(CN(C)C)C2=O)cc1 (configuration not stated),> 200,1.02 µM,–
Cc1cc(C)n(CCNCCn2nc(C)cc2C)n1,–,–,inactive
O=C(COc1ccc(OCC(=O)N2C(=O)CC(=O)N(c3ccccc3)C2=S)cc1)N1C(=O)CC(=O)N(c2ccccc2)C1=S,> 141,75.9 µM,–
O=[N+]([O-])c1ccc(-c2nnc(C34CC5CC(CC(C5)C3)C4)o2)cc1,> 200,> 200 µM,–
CCCCCCCCCCCCCCCCOC(=O)C(C(=O)OCCCCCCCCCCCCCCCC)[N+](C)(C)CCOC(C)=O,–,–,inactive
O=C(O)C(=O)Cc1ccc(O)cc1,> 200,> 200 µM,–
COc1ccc(-c2c3c(nc4nc(SC)nc(SC)c24)CCCC3)cc1OC,> 100,81.3 µM,–
CCOC(=O)C1(Cc2ccccc2)Cc2cc3c(cc2C1=O)CCC3 (configuration not stated),> 200,14.8 µM,–
NC(=O)C1CC2(C1)CC(C(N)=O)C2 (configuration not stated),> 245,> 245 µM,–
NC(=S)/N=C/C1=C(O)CCCC1=O,> 200,> 200 µM,–
C=C1C(C)C2C(Cc3ccccc3)NC(=O)C23OC(=O)/C=C\CC(=O)CCC(C)C/C=C/C3C1O (configuration not stated),> 38.9,1.45 µM,–
CC1(C)OC2C(O1)[C@H]1OC(C(Cl)(Cl)Cl)=N[C@H]1C(I)[C@H]2N1C(=O)c2ccccc2C1=O (some centres not stated),> 200,110 µM,–
COC(=O)[C@]1(C)CCC[C@]2(C)C3CC4OOC3(C=C4C(C)C)CCC21 (some centres not stated),> 251,11.5 µM,–
C/C(Cl)=N\OC(=O)Nc1ccccc1C(F)(F)F,> 200,33.1 µM,–

Compound,EC50 [µM],IC50,outcome
O=C(Nc1ccc(S(=O)(=O)Nc2ncccn2)cc1)c1ccc(C(=O)Nc2ccc(S(=O)(=O)Nc3ncccn3)cc2)cc1,> 200,> 200 µM,–
Cc1ccc(SCC(CF)OCn2cnc3c(N)ncnc32)cc1 (configuration not stated),> 200,> 200 µM,–
ClC(=C(c1ccc(OC2CCCCO2)cc1)c1ccc(OC2CCCCO2)cc1)c1ccccc1 (configuration not stated),> 100,87.1 µM,–
CNC(=O)N(C(C)(C)C)S(=O)(=O)c1ccc(Cl)cc1,–,–,inactive
O=C1C(Cl)N(c2ccccc2)C1c1c[nH]c2ccccc12 (configuration not stated),> 316,288 µM,–
CCN(CCO)CCCC(C)Nc1ccnc2cc(Cl)ccc12 (configuration not stated),> 200,64.6 µM,–
O=C1CCCC(C(Sc2ccccc2)(Sc2ccccc2)Sc2ccccc2)C1 (configuration not stated),> 200,12 µM,–
Cc1noc2c1NC(=O)OC(C)(C)C2,> 447,> 447 µM,–
O=C1CC2CCC(C1)S2=O (configuration not stated),> 200,> 200 µM,–
CN1CCN(CCSSCCN2CCN(C)CC2)CC1,> 200,> 200 µM,–
N#C/C(=C\c1c(Cl)cccc1Cl)c1ccc([N+](=O)[O-])cc1,> 200,> 200 µM,–
O=c1[nH]c2cc(Cl)ccc2nc1/C(=N\O)C(O)c1ccc(Cl)cc1Cl (configuration not stated),> 74.1,> 74.1 µM,–
CC1(C)C(=O)C2(OS(=O)(=O)C(F)(F)F)CCC1C2 (configuration not stated),> 200,> 200 µM,–
O=S1(=O)CCCCO1,–,–,inactive
O=[N+]([O-])c1ccc(C[N+]23CCN(CC2)CC3)cc1,–,–,inactive
O=C(O)/C=C\C(=O)Nc1ccc(S(=O)(=O)c2ccc(NC(=O)/C=C\C(=O)O)cc2)cc1,> 562,> 562 µM,–
Nc1nc(Nc2ccc(Cl)c(Cl)c2)c(N=O)c(=O)[nH]1,> 200,3.72 µM,–
S=C(Nc1c2c(nc3ccccc13)CCCC2)Nc1c2c(nc3ccccc13)CCCC2,> 200,> 200 µM,–
COc1cc(C[C@H]2C(=O)OCC2Cc2ccc(OC)c(OC)c2)ccc1O (some centres not stated),> 200,5.5 µM,–
Cc1cccc(C2ON=C(c3ccccc3)N2C23CC4CC(CC(C4)C2)C3)c1 (configuration not stated),> 200,49 µM,–
O=c1cc(NNc2ccccc2)[nH]c(=O)[nH]1,> 200,1.02 µM,–
CCC1=C(C)c2cc3[n-]c(cc4nc(c(C=O)c5[n-]c(cc1n2)c(C)c5CC)C(C)=C4CC)c(C)c3CC.[Ni+2],> 50.1,> 50.1 µM,–
Cn1c(=O)c2c(no[n+]2[O-])c2ccccc21,–,–,inactive

Compound,EC50 [µM],IC50,outcome
Cc1cn(C2C[C@@H](/[N+]([O-])=C\c3ccccc3)C(CO[Si](C)(C)C(C)(C)C)O2)c(=O)[nH]c1=O (some centres not stated),> 200,24.5 µM,–
O=C(CSc1nc2[nH]ncc2c(=O)[nH]1)c1ccc(Cl)cc1,> 200,> 200 µM,–
CC1=CCN(c2ccccn2)OC1c1ccccc1 (configuration not stated),> 74.1,> 74.1 µM,–
COc1cccc2c1OC(=O)NC2O (configuration not stated),–,–,inactive
CC1CC12OC(=O)N(c1cc(Cl)cc(Cl)c1)C2=O (configuration not stated),> 200,31.6 µM,–
COC(=O)CN1CCN(c2cccc3c2CCCC3)CC1,> 200,64.6 µM,–
C[C@]12CC[C@@H]3c4ccc(OS(=O)(=O)O)cc4CC[C@H]3[C@@H]1CCC2=O,–,–,inactive
CCOP(=O)(OCC)/C(C#N)=C/c1ccoc1,> 977,> 977 µM,–
CC1CCC(O)/C=C/C(=O)OC(C)C(O)/C=C/C(=O)O1 (configuration not stated),> 200,10 µM,–
COc1cc(C2C(C(=O)Nc3cc(F)c(F)cc3F)=C(C)NC(C)=C2C(=O)Nc2cc(F)c(F)cc2F)ccc1O,> 32.4,> 32.4 µM,–
COc1ccc(OC)c(/C=C(/C#N)c2ccccc2)c1,> 10.2,> 10.2 µM,–
C(=C/C1CCCOC1)/CCc1ccccc1 (configuration not stated),–,–,inactive
Cc1cc2c(C(C)C)c(O)c(O)c(C=Nc3ccccc3)c2c(O)c1-c1c(C)cc2c(C(C)C)c(O)c(O)c(C=Nc3ccccc3)c2c1O,0.55,0.562 µM,–
N#CNC(N)=NC1=CC(=O)C(=O)c2ccccc21,> 30.2,17.4 µM,–
CN(C)CCCOCCn1c2c(c3ccccc31)CCCC2,> 200,32.4 µM,–
O=C(C(=Cn1c(=O)cc[nH]c1=S)C(=O)c1ccccc1)c1ccccc1,–,–,inactive
COc1ccc(-c2c(C#N)c(O)n(NS(=O)(=O)c3ccc(C)cc3)c(=O)c2C#N)cc1,> 200,56.2 µM,–
CCOP(=O)(Cc1cc(C(C)(C)C)c(O)c(C(C)(C)C)c1)OCC,> 100,> 100 µM,–
N#Cc1c(N)c(-c2ccc(Cl)cc2)c(F)c2ccccc12,178,> 200 µM,–
CC1(C)Oc2ccc3c(=O)cc(-c4cccs4)oc3c2C1C(=O)O (configuration not stated),> 200,> 200 µM,–
CCN1C[C@]2(C)CC[C@H](O)C34C1C(C[C@@H]32)[C@@]1(O)CC[C@H]2C[C@@H]4[C@@H]1[C@H]2O,–,–,inactive
O=C1OCOC1C1OCOC1=O (configuration not stated),> 200,19.1 µM,–
CCOC(=O)N(C)C(=C(F)F)C(F)(F)F,> 200,> 200 µM,–

Compound,EC50 [µM],IC50,outcome
CCc1ccc(/C(C#N)=C/c2cccc3ccccc23)cc1,> 200,26.9 µM,–
CC(SC(=S)Nc1cccc(F)c1)C(=O)O (configuration not stated),–,–,inactive
Cc1cccc(C)c1N1C(=O)C(=O)C(c2nc3ccccc3s2)C(=Nc2cccc3c(=O)[nH][nH]c(=O)c23)C1=O (configuration not stated),–,–,inactive
O=C(c1nc2ccc(Cl)cc2[nH]c1=O)C(O)c1cccc([N+](=O)[O-])c1 (configuration not stated),> 186,12 µM,–
COc1cc(C2c3cc4c(cc3CCN2C(=O)c2ccccc2)OCO4)cc(OC)c1OC (configuration not stated),> 200,13.5 µM,–
CCOP(=O)(OCC)/C(C#N)=C/c1cccc(F)c1,> 331,> 331 µM,–
Cc1cccc(-n2cc(C#N)c3c(C)cc(C)nc32)c1,> 100,> 100 µM,–
C=CCCCC(C#N)(c1ccccc1)N1CCCC1 (configuration not stated),–,–,inactive
Cc1nc2c(=O)[nH]cnc2o1,> 575,> 575 µM,–
S=C(Nc1ccc2cn[nH]c2c1)Nc1ccc2cn[nH]c2c1,> 309,129 µM,–
Cc1nnc(Nc2ccc(Cl)cc2)o1,> 200,> 200 µM,–
CCCCCCN(C(=O)Oc1ccccc1)C(C#N)c1ccccc1 (configuration not stated),> 200,> 200 µM,–
COc1cc(C2c3c(oc4ccccc4c3=O)Oc3oc4ccccc4c(=O)c32)cc(OC)c1O,> 5.75,> 5.75 µM,–
CCCCCCCCCCCCC(Br)C(=O)SCCNC(=O)CCNC(=O)[C@@H](O)C(C)(C)COP(=O)(O)OP(=O)(O)OCC1OC(n2cnc3c(N)ncnc32)C(O)C1OP(=O)(O)O (some centres not stated),–,–,inactive
CC12CCC(=O)N1c1cncnc1N2 (configuration not stated),> 1320,> 1320 µM,–
CCOc1ccc(NC(=O)CC2C(=O)Nc3ccccc3S2=O)cc1 (configuration not stated),> 7.59,> 7.59 µM,–
Nc1ccc2nc(Nc3ccc(Cl)c(Cl)c3)cnc2c1,> 23.4,> 23.4 µM,–
C=C(Br)C[N+]12CN3CN(CN(C3)C1)C2,> 200,55 µM,–
O=C(NNC(=O)c1ccccc1O)c1ccccc1O,> 0.2,0.102 µM,–
CC1(C)CCC2=C(O1)c1ccccc1C(=O)C2=O,> 200,0.912 µM and 1.07 µM,–
Nc1ccc(N=Nc2ccccc2)c(N)n1,> 200,32.4 µM,–
COC1CC2(C[Si](C)(C)C)OC(=O)OC2C(C)O1 (configuration not stated),–,–,inactive
Cn1cnc([N+](=O)[O-])c1Sc1nccn1-c1cccc2ccccc12,> 102,13.2 µM,–
